In brackets after ≈: the same amount, converted by molar mass. Some results are limits rather than exact numbers.

Experiment [1] concerns Mycobacterium tuberculosis. Description: Antimycobacterial activity against Mycobacterium tuberculosis clinical isolate X003899 under normoxic condition after 7 days by MABA assay. The following applies: clinical isolate X003899, 168 h. It counts as functional. A general note: Resazurin is reduced to fluorescent resorufin, in cell work by metabolically active cells.
The test system of experiment [2] is Mycobacterium tuberculosis. Description: Antimycobacterial activity against Mycobacterium tuberculosis clinical isolate X004439 under normoxic condition after 7 days by MABA assay. Type of experiment: functional. The conditions noted are these: clinical isolate X004439, 168 h.
Experiment [3] deals with Mycobacterium tuberculosis. Description: Antimycobacterial activity against Mycobacterium tuberculosis clinical isolate X005319 under normoxic condition after 7 days by MABA assay. It counts as functional. The conditions noted are these: clinical isolate X005319, 168 h.
In experiment [4] the test system is Escherichia coli. Briefly: Antibacterial activity against Escherichia coli ATCC 25922 at 10 ug/ml after 16 hrs. The conditions noted are these: ATCC 25922, 16 h. It counts as functional.
Experiment [5] relates to Mycobacterium tuberculosis. Description: Antimycobacterial activity against Mycobacterium tuberculosis H37Rv under normoxic condition after 7 days by MABA assay in presence of 4% bovine serum albumin. It counts as functional. The following applies: 168 h.
Experiment [6] concerns Candida albicans. Briefly: Antifungal activity against Candida albicans ATCC 10231 after 48 hrs. It counts as functional. The following applies: ATCC 10231, 48 h.
In experiment [7] the test system is Enterococcus faecalis. Description: Antibacterial activity against Enterococcus faecalis ATCC 29212 after 16 hrs. It counts as functional. The conditions noted are these: ATCC 29212, 16 h.
Experiment [8] concerns Mycobacterium tuberculosis. Description: Ratio of MIC for Mycobacterium tuberculosis H37Rv under normoxic condition in presence of 4% bovine serum albumin to MIC for Mycobacterium tuberculosis H37Rv under normoxic condition in absence of 4% bovine serum albumin by MABA assay. It counts as functional.
Experiment [9] concerns Mycobacterium tuberculosis. Description: Antimycobacterial activity against Mycobacterium tuberculosis H37Rv under normoxic condition after 7 days by MABA assay in presence of 10% fetal bovine serum. Type of experiment: functional. The following applies: 168 h.
Experiment [10] relates to Mycobacterium tuberculosis. Briefly: Antimycobacterial activity against Mycobacterium tuberculosis clinical isolate X005282 under normoxic condition after 7 days by MABA assay. The conditions noted are these: clinical isolate X005282, 168 h. It counts as functional.
Experiment [11] has as its system Pseudomonas aeruginosa. Description: Antibacterial activity against Pseudomonas aeruginosa ATCC 27853 after 16 hrs. It counts as functional. The following applies: ATCC 27853, 16 h.
For experiment [12], the system named is Escherichia coli. Briefly: Antibacterial activity against Escherichia coli ATCC 25922 after 16 hrs. Type of experiment: functional. The following applies: ATCC 25922, 16 h.
Experiment [13] concerns Mycobacterium tuberculosis. Description: Antimycobacterial activity against Mycobacterium tuberculosis clinical isolate X004244 under normoxic condition after 7 days by MABA assay. Type of experiment: functional. The conditions noted are these: clinical isolate X004244, 168 h.
For experiment [14], the system named is Pseudomonas aeruginosa. Briefly: Antibacterial activity against Pseudomonas aeruginosa ATCC 27853 at 10 ug/ml after 16 hrs. The conditions noted are these: ATCC 27853, 16 h. It counts as functional.
Experiment [15] concerns Acinetobacter baumannii. Briefly: Antibacterial activity against Acinetobacter baumannii ATCC BAA-747 after 16 hrs. It counts as functional. The conditions noted are these: ATCC BAA-747, 16 h.
Experiment [16] concerns Mycobacterium tuberculosis. Briefly: Antimycobacterial activity against Mycobacterium tuberculosis clinical isolate X001354 under normoxic condition after 7 days by MABA assay. Type of experiment: functional. The following applies: clinical isolate X001354, 168 h.
The subject of experiment [17] is Vero. Briefly: Cytotoxicity against african green monkey Vero cells. It counts as cell-based. The conditions noted are these: Chlorocebus sabaeus.
The subject of experiment [18] is Mycobacterium tuberculosis. Description: Ratio of MIC for Mycobacterium tuberculosis H37Rv under normoxic condition in presence of 10% fetal bovine serum to MIC for Mycobacterium tuberculosis H37Rv under normoxic condition in absence of 10% fetal bovine serum by MABA assay. Type of experiment: functional.
Experiment [19] concerns Candida albicans. Description: Antifungal activity against Candida albicans ATCC 10231 at 10 ug/ml after 48 hrs. Type of experiment: functional. The conditions noted are these: ATCC 10231, 48 h.
The subject of experiment [20] is Acinetobacter baumannii. Description: Antibacterial activity against Acinetobacter baumannii ATCC BAA-747 at 10 ug/ml after 16 hrs. Type of experiment: functional. The following applies: ATCC BAA-747, 16 h.
For experiment [21], the system named is Staphylococcus aureus. Description: Antibacterial activity against Staphylococcus aureus ATCC 29213 at 10 ug/ml after 16 hrs. The following applies: ATCC 29213, 16 h. It counts as functional.
For experiment [22], the system named is Streptococcus pneumoniae. Description: Antibacterial activity against Streptococcus pneumoniae ATCC 49619 after 20 hrs. Type of experiment: functional. The conditions noted are these: ATCC 49619, 20 h.
Experiment [23] has as its system Mycolicibacterium smegmatis. Briefly: Antimycobacterial activity against Mycobacterium smegmatis ATCC 700084 under normoxic condition after 72 hrs by MABA assay. It counts as functional. The conditions noted are these: ATCC 700084, 72 h.
For experiment [24], the system named is Staphylococcus aureus. Description: Antibacterial activity against Staphylococcus aureus ATCC 29213 after 16 hrs. It counts as functional. The conditions noted are these: ATCC 29213, 16 h.
The subject of experiment [25] is Mycobacterium tuberculosis. Description: Antimycobacterial activity against Mycobacterium tuberculosis H37Rv under normoxic condition after 7 days by MABA assay. The conditions noted are these: for MIC90: Mycobacterium tuberculosis, H37Rv, 168 h. It counts as functional.
Experiment [26] has as its system Streptomyces lavendofoliae. Briefly: Antibacterial activity against Streptomyces lavendofoliae after 16 hrs. It counts as functional.
Experiment [27] concerns Enterococcus faecalis. Briefly: Antibacterial activity against Enterococcus faecalis ATCC 29212 at 10 ug/ml after 16 hrs. It counts as functional. The following applies: ATCC 29212, 16 h.

For the molecule `CC(C)C[C@@H]1NC(=O)[C@H]2CCCNN2C(=O)[C@H](C)N(C)C(=O)[C@H]2CCCNN2C(=O)[C@@H]2CCCNN2C(=O)[C@@H](C(C)C)NC1=O`, the MIC90 is 22.9 µg/mL (≈ 36.1 µM) in experiment [1]; 9.3 µg/mL (≈ 14.7 µM) in [2]; 19.2 µg/mL (≈ 30.3 µM) in [3]; 24.1 µg/mL in [5]; greater than 10 µg/mL in experiment [6]; 8 µg/mL (≈ 12.6 µM) in [7]. Also, the MIC90 in experiment [9] is 29.2 µg/mL; in [10], 9.6 µg/mL (≈ 15.1 µM); in experiment [11], greater than 10 µg/mL; in experiment [12] it was greater than 10 µg/mL; in experiment [13], 16.9 µg/mL (≈ 26.7 µM); in experiment [15] it was greater than 10 µg/mL. The MIC90 in experiment [16] is 9.7 µg/mL (≈ 15.3 µM); in [22], 8.4 µg/mL (≈ 13.3 µM); in experiment [23], greater than 10 µg/mL; in experiment [24], greater than 10 µg/mL; in experiment [25], 11.3 µg/mL (≈ 17.8 µM). Moreover, the inhibition at 10 µg/mL worked out at 17% in [4]; 7% in experiment [14]; 17% in experiment [19]; 37% in [20]; 86% in experiment [21]. In addition, the Ratio in [8] and in [18] was 2 each time. In [17], this molecule displayed a 50% inhibitory concentration (IC50) of 24.2 µg/mL (≈ 38.2 µM). This molecule showed an MBC90 in experiment [25] greater than 50 µg/mL.
Turning to `CC[C@H](C)[C@H]1NC(=O)[C@H](CC(C)C)NC(=O)[C@H]2CCCNN2C(=O)[C@H](C)N(C)C(=O)[C@H]2CCCNN2C(=O)[C@@H]2CCCNN2C1=O`, the MIC90 in experiment [1] is 4.8 µg/mL (≈ 7.41 µM); in experiment [2] it was 4.4 µg/mL (≈ 6.79 µM); in [3] it was 4.8 µg/mL (≈ 7.41 µM); in [5] it was 11.9 µg/mL; in [6], greater than 10 µg/mL; in [7] it was 3.5 µg/mL (≈ 5.4 µM). Also, the MIC90 in experiment [9] was 9.4 µg/mL; in experiment [10] it was 4.7 µg/mL (≈ 7.26 µM); in experiment [11] it was greater than 10 µg/mL; in [12], greater than 10 µg/mL; in experiment [13], 4.7 µg/mL (≈ 7.26 µM); in experiment [15] it was greater than 10 µg/mL. For the same molecule, the MIC90 was 4.7 µg/mL (≈ 7.26 µM) in experiment [16]; 2.4 µg/mL (≈ 3.7 µM) in [22]; greater than 10 µg/mL in [23]; 4.5 µg/mL (≈ 6.95 µM) in [24]; 6 µg/mL (≈ 9.26 µM) in experiment [25]. The inhibition at 10 µg/mL in [4] came out at 2%; in experiment [14], 10%; in experiment [19], 0%; in [20], 77%. In addition, the Ratio in experiment [8] and in [18] was 2 each time. The same molecule returned an IC50 in experiment [17] of 7.7 µg/mL (≈ 11.9 µM). Also, the MBC90 in [25] was 44.2 µg/mL (≈ 68.2 µM).
In turn, `C=C1NC(CC(C)C)C(=O)N[C@H](C(C)C)C(=O)N2NCCCC2C(=O)CC(CC(C)C)C(=O)N2NCCCC2C(=O)OC(C)[C@H]1NC(=O)[C@@H](NC=O)[C@@H](C)CC` (stereo partly specified) came in with an MIC in experiment [26] of 3.12 µg/mL (≈ 3.95 µM).
Regarding `CC1(C)S[C@@H]2[C@H](NC(=O)[C@H](N)c3ccccc3)C(=O)N2[C@H]1C(=O)O` [AMPICILLIN], the MIC90 is greater than 10 µg/mL in [7], 8.9 µg/mL (≈ 25.5 µM) in experiment [12] and 1.2 µg/mL (≈ 3.43 µM) in experiment [24]. For the same molecule, the inhibition at 10 µg/mL in [27] came to 66%.

Broadly, the MIC90 is the lowest concentration that inhibits either 90% of growth or 90% of the strains tested, depending on the study. What is called inhibition is the drop in the measured response relative to a control, in per cent. The term IC50 denotes the concentration that gives 50% inhibition. One may read the MIC as the least concentration at which growth counts as inhibited.

Values taken from ChEMBL document CHEMBL3085716, “Hytramycins V and I, anti-Mycobacterium tuberculosis hexapeptides from a Streptomyces hygroscopicus strain” (J Nat Prod, 2013).
